Measurements as given in ChEMBL document CHEMBL1201862, “PubChem BioAssay data set” (2004).
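Cultured in 96-well plates, cells were exposed to test compound for 48 hours across five concentrations. GI50 = concentration required for 50% inhibition of growth.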 Calls of active or inactive are those of the source. Cut-off read from the data, not from the text of the source: active = GI50 up to about 1.1 µM and inactive = higher.

What was measured:
Experiment in all cases: inhibition of tumour cell growth, NCI panel, 48 h
A498 = tested on: A498
HCC 2998 = tested on: HCC 2998
HCT-15 = tested on: HCT-15
LOX IMVI = tested on: LOX IMVI
M14 = tested on: M14
MCF7 = tested on: MCF7
MDA-N = tested on: MDA-N
Malme-3M = tested on: Malme-3M
NCI-H226 = tested on: NCI-H226
NCI-H23 = tested on: NCI-H23
NCI-H460 = tested on: NCI-H460
OVCAR-3 = tested on: OVCAR-3
OVCAR-5 = tested on: OVCAR-5
OVCAR-8 = tested on: OVCAR-8
RPMI-8226 = tested on: RPMI-8226
RXF 393 = tested on: RXF 393
SK-MEL-2 = tested on: SK-MEL-2
TK-10 = tested on: TK-10
UACC-257 = tested on: UACC-257
HL-60 = tested on: HL-60

Structure (SMILES)	GI50 (A498)	GI50 (HCC 2998)	GI50 (HCT-15) [µM]	GI50 (LOX IMVI)	GI50 (M14)	GI50 (MCF7)	GI50 (MDA-N)	GI50 (Malme-3M)	GI50 (NCI-H226)	GI50 (NCI-H23)	GI50 (NCI-H460)	GI50 (OVCAR-3)	GI50 (OVCAR-5)	GI50 (OVCAR-8)	GI50 (RPMI-8226)	GI50 (RXF 393)	GI50 (SK-MEL-2)	GI50 (TK-10)	GI50 (UACC-257)	GI50 (HL-60)
COc1cc(CNc2nc3ccccc3n2Cc2ccccc2)cc(CN2CCOCC2)c1O	21.1 µM (inactive)	33.9 µM (inactive)	29.6	15.5 µM (inactive)	24.7 µM (inactive)	31.7 µM (inactive)	27.4 µM (inactive)	19.1 µM (inactive)	30.8 µM (inactive)	60.7 µM (inactive)	50.9 µM (inactive)	20.6 µM (inactive)	26.5 µM (inactive)	32.1 µM (inactive)	91 µM (inactive)	18.2 µM (inactive)	22.4 µM (inactive)	23.9 µM (inactive)	20.1 µM (inactive)	–
COc1cc(/C=N/n2c(-c3ccccc3)nn(C(C)=O)c2=O)cc(OC)c1OC	1.59 µM (inactive)	0.748 µM (active)	0.635	2.72 µM (inactive)	2.14 µM (inactive)	0.684 µM (active)	0.228 µM (active)	5.36 µM (inactive)	18.5 µM (inactive)	4.07 µM (inactive)	0.619 µM (active)	0.69 µM (active)	20 µM (inactive)	3.78 µM (inactive)	1.49 µM (inactive)	5.26 µM (inactive)	1.72 µM (inactive)	3.85 µM (inactive)	3.24 µM (inactive)	0.745 µM (active)
COC(=O)C(Cc1ccccc1)NP(=O)(O)OCC1OC(n2cc(Br)c(=O)[nH]c2=O)CC1O (stereo unspecified)	> 100 µM (inactive)	> 100 µM (inactive)	> 100	> 100 µM (inactive)	> 100 µM (inactive)	> 100 µM (inactive)	> 100 µM (inactive)	> 100 µM (inactive)	> 100 µM (inactive)	> 100 µM (inactive)	> 100 µM (inactive)	> 100 µM (inactive)	> 100 µM (inactive)	> 100 µM (inactive)	–	> 100 µM (inactive)	> 100 µM (inactive)	> 100 µM (inactive)	> 100 µM (inactive)	> 100 µM (inactive)
N#Cc1cnc(N)nc1NCC1(CO)CC(CCc2ccccc2)C1 (stereo unspecified)	29 µM (inactive)	> 100 µM (inactive)	> 100	5.26 µM (inactive)	> 100 µM (inactive)	49.1 µM (inactive)	29.9 µM (inactive)	> 100 µM (inactive)	> 100 µM (inactive)	63.4 µM (inactive)	> 100 µM (inactive)	> 90.4 µM (inactive)	> 100 µM (inactive)	47.3 µM (inactive)	> 100 µM (inactive)	49 µM (inactive)	> 100 µM (inactive)	> 61.5 µM (inactive)	42.1 µM (inactive)	–
N#CC(C#N)=CNC(N)=S	> 100 µM (inactive)	> 100 µM (inactive)	> 100	> 100 µM (inactive)	> 100 µM (inactive)	> 100 µM (inactive)	> 100 µM (inactive)	> 100 µM (inactive)	> 100 µM (inactive)	> 100 µM (inactive)	> 100 µM (inactive)	1.5 µM (inactive)	> 100 µM (inactive)	> 100 µM (inactive)	> 100 µM (inactive)	> 100 µM (inactive)	> 100 µM (inactive)	–	> 100 µM (inactive)	> 100 µM (inactive)
CCOC(=O)C(Cc1ccc2c(c1)CCC2)Cc1ccc2c(c1)CCC2	> 100 µM (inactive)	95.9 µM (inactive)	> 100	20.7 µM (inactive)	> 100 µM (inactive)	45.4 µM (inactive)	98.4 µM (inactive)	> 100 µM (inactive)	–	69 µM (inactive)	> 100 µM (inactive)	> 100 µM (inactive)	> 100 µM (inactive)	> 100 µM (inactive)	44.4 µM (inactive)	> 100 µM (inactive)	> 100 µM (inactive)	> 100 µM (inactive)	54.5 µM (inactive)	25.9 µM (inactive)
Cc1ccc(/N=N/C(=N/NC(=O)c2ccccc2)c2ccc(N(CCC#N)CCC#N)cc2C)cc1	19.8 µM (inactive)	24.9 µM (inactive)	25.3	–	78.2 µM (inactive)	21.3 µM (inactive)	3.97 µM (inactive)	43.5 µM (inactive)	44 µM (inactive)	52.6 µM (inactive)	20.3 µM (inactive)	12.5 µM (inactive)	> 100 µM (inactive)	39.4 µM (inactive)	> 100 µM (inactive)	22.8 µM (inactive)	50.4 µM (inactive)	> 100 µM (inactive)	55 µM (inactive)	12.2 µM (inactive)
Cc1nc(-c2cc3cc(Cl)ccc3oc2=O)cc2c1c(=O)oc1ccc(Cl)cc12	> 100 µM (inactive)	> 100 µM (inactive)	> 100	> 100 µM (inactive)	> 100 µM (inactive)	> 100 µM (inactive)	> 100 µM (inactive)	–	> 100 µM (inactive)	> 100 µM (inactive)	> 100 µM (inactive)	> 100 µM (inactive)	–	> 100 µM (inactive)	> 100 µM (inactive)	> 100 µM (inactive)	> 100 µM (inactive)	> 100 µM (inactive)	> 100 µM (inactive)	> 100 µM (inactive)
CCOC(=O)c1c(N2CCOCC2)[nH]c(=O)c(C(c2ccco2)c2c(O)c(C(=O)OCC)c(N3CCOCC3)[nH]c2=O)c1O	> 100 µM (inactive)	> 100 µM (inactive)	> 100	> 100 µM (inactive)	> 100 µM (inactive)	> 100 µM (inactive)	> 100 µM (inactive)	> 100 µM (inactive)	> 100 µM (inactive)	> 100 µM (inactive)	> 100 µM (inactive)	> 100 µM (inactive)	> 100 µM (inactive)	> 100 µM (inactive)	> 100 µM (inactive)	> 100 µM (inactive)	> 100 µM (inactive)	> 100 µM (inactive)	> 100 µM (inactive)	–
CN(C)Nc1cc(=O)[nH]c(=O)[nH]1	> 100 µM (inactive)	> 100 µM (inactive)	> 100	> 100 µM (inactive)	> 100 µM (inactive)	> 100 µM (inactive)	> 100 µM (inactive)	> 100 µM (inactive)	> 100 µM (inactive)	–	> 100 µM (inactive)	> 100 µM (inactive)	> 100 µM (inactive)	> 100 µM (inactive)	> 100 µM (inactive)	> 100 µM (inactive)	–	> 100 µM (inactive)	> 100 µM (inactive)	> 100 µM (inactive)
O=c1c2c(-c3ccccc3)onc2n(-c2ccccc2)c(=O)n1-c1ccccc1	> 100 µM (inactive)	18.2 µM (inactive)	15.8	> 100 µM (inactive)	17.1 µM (inactive)	> 100 µM (inactive)	> 100 µM (inactive)	17.5 µM (inactive)	26.1 µM (inactive)	19 µM (inactive)	17.9 µM (inactive)	15.1 µM (inactive)	16.4 µM (inactive)	17.5 µM (inactive)	> 100 µM (inactive)	> 100 µM (inactive)	11 µM (inactive)	14.5 µM (inactive)	19.7 µM (inactive)	–
Cc1ccc(NC(=O)CC(=O)N2N=C(N3CCCCC3)CC2c2ccccc2)cc1 (stereo unspecified)	> 100 µM (inactive)	> 100 µM (inactive)	> 100	> 100 µM (inactive)	> 100 µM (inactive)	> 100 µM (inactive)	> 100 µM (inactive)	> 100 µM (inactive)	> 100 µM (inactive)	> 100 µM (inactive)	> 100 µM (inactive)	> 100 µM (inactive)	> 100 µM (inactive)	> 100 µM (inactive)	–	> 100 µM (inactive)	> 100 µM (inactive)	> 100 µM (inactive)	> 100 µM (inactive)	> 100 µM (inactive)
CC(C)(C)OC(=O)/C=C/[C@@H](CCC(=O)/C=C/[C@H](/C=C\CCCC(=O)O)NC1(c2ccccc2)c2ccccc2-c2ccccc21)O[Si](C)(C)C(C)(C)C	19.2 µM (inactive)	16.8 µM (inactive)	12.3	13.8 µM (inactive)	14 µM (inactive)	15.9 µM (inactive)	17.1 µM (inactive)	–	18.3 µM (inactive)	16.3 µM (inactive)	17.6 µM (inactive)	16.7 µM (inactive)	20.5 µM (inactive)	18.1 µM (inactive)	10.5 µM (inactive)	11.5 µM (inactive)	15.4 µM (inactive)	24.8 µM (inactive)	17.8 µM (inactive)	24.8 µM (inactive)
O=C(/C=C1\C[C@H]2C=Nc3ccccc3C(=O)N2C1)NCCCNC(=O)/C=C1\C[C@H]2C=Nc3ccccc3C(=O)N2C1	17.5 µM (inactive)	20.2 µM (inactive)	18.1	6.25 µM (inactive)	14.4 µM (inactive)	16.7 µM (inactive)	17.1 µM (inactive)	15.9 µM (inactive)	20.7 µM (inactive)	15.5 µM (inactive)	18.6 µM (inactive)	12 µM (inactive)	21.2 µM (inactive)	18.6 µM (inactive)	10.1 µM (inactive)	13.6 µM (inactive)	19.3 µM (inactive)	19.8 µM (inactive)	16.5 µM (inactive)	8.73 µM (inactive)
